Here are results for 13 compounds from US20110224250A1, “ISOQUINOLINE DERIVATIVE, AND PDE INHIBITOR COMPRISING SAME AS ACTIVE INGREDIENT” (priority 2008, published 2011).

Each structure is given as a SMILES string.

One test concerns the target T1, PDE3A catalytic zone (Homo sapiens, UniProt Q14432).
T1 construct: Regarding the cDNAs of the PDE3A catalytic zone; made in house; host or cells: Sf9 insect cells (baculovirus, Bac-to-Bac / Gateway)
Kind of test: Phosphodiesterase-inhibitory activity, PDE3. The format is biochemical. The conditions noted are these: human-derived recombinant PDE protein, [3H]-cAMP, 30° C. for 20 minutes; read-out: IC50 (μmol/L) PDE3.

The next test addresses T2, PDE4Bcat (Homo sapiens, UniProt Q07343).
T2 construct: made in house; host or cells: Sf9 insect cells (baculovirus, Bac-to-Bac / Gateway)
Kind of test: Phosphodiesterase-inhibitory activity, PDE4. The format is biochemical. To be noted: human-derived recombinant PDE protein, [3H]-cAMP, 30° C. for 20 minutes; read-out: IC50 (μmol/L) PDE4.

T1 sequence (Q14432 674-1093 limits assumed): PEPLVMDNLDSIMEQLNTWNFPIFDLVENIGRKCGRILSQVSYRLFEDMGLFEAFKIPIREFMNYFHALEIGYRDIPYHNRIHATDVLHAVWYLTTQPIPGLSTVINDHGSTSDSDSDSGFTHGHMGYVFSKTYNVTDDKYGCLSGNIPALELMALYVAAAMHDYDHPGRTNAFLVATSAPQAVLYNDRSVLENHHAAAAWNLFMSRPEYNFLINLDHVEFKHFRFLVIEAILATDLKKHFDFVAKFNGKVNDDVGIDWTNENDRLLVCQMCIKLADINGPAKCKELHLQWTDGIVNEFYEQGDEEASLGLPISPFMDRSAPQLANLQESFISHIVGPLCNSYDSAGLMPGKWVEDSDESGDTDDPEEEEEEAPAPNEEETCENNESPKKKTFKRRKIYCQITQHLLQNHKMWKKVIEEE
T2 sequence (Q07343 330-659 limits assumed): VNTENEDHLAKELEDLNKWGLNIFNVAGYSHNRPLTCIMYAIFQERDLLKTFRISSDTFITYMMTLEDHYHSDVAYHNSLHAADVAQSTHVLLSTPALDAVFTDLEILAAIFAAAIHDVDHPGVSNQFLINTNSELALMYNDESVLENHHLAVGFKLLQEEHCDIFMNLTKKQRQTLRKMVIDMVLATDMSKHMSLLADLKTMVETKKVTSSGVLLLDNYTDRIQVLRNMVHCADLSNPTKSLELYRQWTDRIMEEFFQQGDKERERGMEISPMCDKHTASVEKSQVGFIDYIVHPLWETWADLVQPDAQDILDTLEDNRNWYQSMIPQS

Consider `CNc1ccc(-c2ccc3cnccc3c2)c2c(Cl)c(C(F)(F)F)nn12` [Example 56, 3-Chloro-4-(isoquinolin-6-yl)-N-methyl-2-trifluoromethylpyrazolo[1,5-a]pyridine-7-amine], for which the IC50 is not below 100 µmol/L at PDE3A catalytic zone and less than 0.01 µmol/L at PDE4Bcat.

As for `COc1ccc(-c2ccc3cnccc3c2)n2c(Cl)c(C(F)(F)F)nc12` [Example 57, 6-(3-Chloro-8-methoxy-2-trifluoromethylimidazo[1,2-a]pyridin-5-yl)isoquinoline], the IC50 on PDE3A catalytic zone is not below 100 µmol/L; at PDE4Bcat, less than 0.01 µmol/L.

Take `COc1ccc(-c2ccc3cncc(Cl)c3c2)c2cc(C(F)(F)F)nn12` [Example 49, 4-Chloro-6-(7-methoxy-2-trifluoromethylpyrazolo[1,5-a]pyridin-4-yl)isoquinoline]: the IC50 is 1 to 100 µmol/L on PDE3A catalytic zone and less than 0.01 µmol/L at PDE4Bcat.

Turning to `COc1ccc(-c2ccc3cnccc3c2Cl)c2cc(C(F)(F)F)nn12` [Example 50, 5-Chloro-6-(7-methoxy-2-trifluoromethylpyrazolo[1,5-a]pyridin-4-yl)isoquinoline], the IC50 on PDE3A catalytic zone is 1 to 100 µmol/L; at PDE4Bcat, less than 0.01 µmol/L.

With `COc1ccc(-c2ccc3cnccc3c2)c2cc(C(F)(F)F)nn12` [Example 47, 6-(7-Methoxy-2-trifluoromethylpyrazolo[1,5-a]pyridin-4-yl)isoquinoline], the IC50 on PDE3A catalytic zone was not below 100 µmol/L; on PDE4Bcat, less than 0.01 µmol/L.

Take `CNc1ccc(-c2ccc3cnccc3c2)n2c(Cl)c(C(F)(F)F)nc12` [Example 58, 3-Chloro-5-(isoquinolin-6-yl)-N-methyl-2-trifluoromethylimidazo[1,2a]pyridine-8-amine]: the IC50 at PDE3A catalytic zone is not below 100 µmol/L; at PDE4Bcat, less than 0.01 µmol/L.

Regarding `COc1ccc(-c2ccc3cncc(Cl)c3c2)c2c(Cl)c(C(F)(F)F)nn12` [Example 52, 4-Chloro-6-(3-chloro-7-methoxy-2-trifluoromethylpyrazolo[1,5-a]pyridin-4-yl)isoquinoline], the results for the IC50 on PDE3A catalytic zone and at PDE4Bcat were not below 100 µmol/L and less than 0.01 µmol/L, respectively.

For the compound `COc1ccc(-c2ccc3cnccc3c2)c2c(Cl)c(C(F)(F)F)nn12` [Example 51, 6-(3-Chloro-7-methoxy-2-trifluoromethylpyrazolo[1,5-a]pyridin-4-yl)isoquinoline], the results for the IC50 on PDE3A catalytic zone and on PDE4Bcat were not below 100 µmol/L and less than 0.01 µmol/L, respectively.

For `CNc1ccc(-c2ccc3cnccc3c2)c2cc(C(F)(F)F)nn12` [Example 55, 4-(Isoquinolin-6-yl)-N-methyl-2-trifluoromethylpyrazolo[1,5-a]pyridine-7-amine], the values for the IC50 on PDE3A catalytic zone and on PDE4Bcat were not below 100 µmol/L and less than 0.01 µmol/L, respectively.

With `COc1ccc(-c2ccc3cnccc3c2)c2cccnc12` [Example 59, 5-(Isoquinolin-6-yl)-8-methoxyquinoline], the IC50 on PDE3A catalytic zone was 1 to 100 µmol/L; at PDE4Bcat, less than 0.01 µmol/L.

`CCc1cc2c(-c3ccc4cnccc4c3)ccc(OC)n2n1` [Example 54, 6-(2-Ethyl-7-methoxypyrazolo[1,5-a]pyridin-4-yl)isoquinoline]: the IC50 is 1 to 100 µmol/L on PDE3A catalytic zone and less than 0.01 µmol/L on PDE4Bcat.

In the case of `COc1ccc(-c2ccc3cnccc3c2)c2cc(C3CC3)nn12` [Example 53, 6-(2-Cyclopropyl-7-methoxypyrazolo[1,5-a]pyridin-4-yl)isoquinoline], the IC50 is 1 to 100 µmol/L at PDE3A catalytic zone and less than 0.01 µmol/L on PDE4Bcat.

As for `COc1ccc(-c2ccc3c[n+]([O-])ccc3c2)c2cc(C(F)(F)F)nn12` [Example 48, 6-(7-Methoxy-2-trifluoromethylpyrazolo[1,5-a]pyridin-4-yl)isoquinoline 2-oxide], the IC50 was 1 to 100 µmol/L at PDE3A catalytic zone and less than 0.01 µmol/L at PDE4Bcat.
